According to article PMC3796444 (PLoS ONE, 2013):
Residue numbers refer to the chain shown, from its start.

What was measured:
Experiment in all cases: fluorescence equilibrium titration of apo-AGT
Format in all cases: binding
Details in all cases: read-out: K d(PLP) (nM) ^b
[1] = biological target: T1, alanine:glyoxylate aminotransferase (AGT), AGT WT (major allele) (Homo sapiens, UniProt P21549, I340M/P11L)
T1 construct: gene AGXT; His-tagged full-length AGT from pCOLDII, expressed in E. coli BL21, IMAC and SEC; about 90 kDa dimer
T1 sequence (P21549 1-392 P11L/I340M): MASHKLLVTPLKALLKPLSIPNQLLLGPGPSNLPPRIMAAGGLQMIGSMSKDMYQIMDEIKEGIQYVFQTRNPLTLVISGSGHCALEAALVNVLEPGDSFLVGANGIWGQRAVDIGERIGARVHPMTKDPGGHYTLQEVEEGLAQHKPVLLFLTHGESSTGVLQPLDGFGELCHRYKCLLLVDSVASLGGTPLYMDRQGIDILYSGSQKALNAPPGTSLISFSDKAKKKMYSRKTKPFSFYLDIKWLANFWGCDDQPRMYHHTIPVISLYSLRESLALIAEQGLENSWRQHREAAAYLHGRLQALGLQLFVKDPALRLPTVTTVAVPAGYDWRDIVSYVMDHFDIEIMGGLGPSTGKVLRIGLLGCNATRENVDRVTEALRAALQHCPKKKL
Description: (§1) fluorescence equilibrium titration of apo-AGT on alanine:glyoxylate aminotransferase (AGT), AGT WT (major allele)

[2] = biological target: T2, alanine:glyoxylate aminotransferase (AGT), AGT WT (major allele) (Homo sapiens, UniProt P21549, A295T/I340M/P11L)
T2 construct: gene AGXT; His-tagged full-length AGT from pCOLDII, expressed in E. coli BL21, IMAC and SEC; about 90 kDa dimer
T2 sequence (P21549 1-392 P11L/A295T/I340M): T1 sequence (P21549 1-392 P11L/I340M) with A295T
Description: as §1

[3] = biological target: T3, alanine:glyoxylate aminotransferase (AGT), AGT WT (major allele) (Homo sapiens, UniProt P21549, I340M)
T3 construct: gene AGXT; His-tagged full-length AGT from pCOLDII, expressed in E. coli BL21, IMAC and SEC; about 90 kDa dimer
T3 sequence (P21549 1-392 I340M): T1 sequence (P21549 1-392 P11L/I340M) with L11P
Description: as §1

[4] = biological target: T4, alanine:glyoxylate aminotransferase (AGT), AGT WT (major allele) (Homo sapiens, UniProt P21549, A368T/I340M/P11L)
T4 construct: gene AGXT; His-tagged full-length AGT from pCOLDII, expressed in E. coli BL21, IMAC and SEC; about 90 kDa dimer
T4 sequence (P21549 1-392 P11L/I340M/A368T): T1 sequence (P21549 1-392 P11L/I340M) with A368T
Description: as §1

[5] = biological target: T5, alanine:glyoxylate aminotransferase (AGT), AGT WT (major allele) (Homo sapiens, UniProt P21549, I340M/P11L/R197Q)
T5 construct: gene AGXT; His-tagged full-length AGT from pCOLDII, expressed in E. coli BL21, IMAC and SEC; about 90 kDa dimer
T5 sequence (P21549 1-392 P11L/R197Q/I340M): T1 sequence (P21549 1-392 P11L/I340M) with R197Q
Description: as §1

[6] = biological target: T6, alanine:glyoxylate aminotransferase (AGT), AGT WT (major allele) (Homo sapiens, UniProt P21549)
T6 construct: gene AGXT; His-tagged full-length AGT from pCOLDII, expressed in E. coli BL21, IMAC and SEC; about 90 kDa dimer
T6 sequence (P21549 1-392): T1 sequence (P21549 1-392 P11L/I340M) with L11P, M340I
Description: as §1

- Kd [1]: 157 ± 15 nM
- Kd [2]: 71 ± 16 nM
- Kd [3]: 172 ± 42 nM
- Kd [4]: 134 ± 26 nM
- Kd [5]: 156 ± 34 nM
- Kd [6]: 100 ± 30 nM
Compound: Cc1ncc(COP(=O)(O)O)c(C=O)c1O [PLP]
